In patent publication US12630552B2, “Inhibitors of KRAS G12C” (BEIGENE, LTD., priority 2019, dated 2026):

Target: T1, KRAS (aa 1-169) G12C, C51S, C80L, C118S (Homo sapiens, UniProt P01116, C118S/C51S/C80L/G12C)
T1 construct: The KRAS (aa 1-169) G12C, C51S, C80L, C118S with a His-tag; made in house
Assay: KRAS G12C SOS1-mediated nucleotide exchange / GST-cRaf RBD binding FRET assay
Assay type: biochemical
Conditions: GDP-loaded KRAS G12C pre-incubated with compound at 24° C. for 3 hrs; SOS1, GTPγS and GST-cRaf RBD added; FRET 665 nm/620 nm
Procedure: Biochemical Functional Assay:
The KRAS (aa 1-169) G12C, C51S, C80L, C118S with a His-tag was expressed, purified and loaded with GDP in house. All protein and substrate solutions were prepared in assay buffer containing 25 mM HEPES pH7.5, 10 mM MgCl2, and 0.01% Triton X-100. Purified GDP-loaded KRAS (aa 1-169) G12C, C51S, C80L, C118S protein was pre-incubated with a serially diluted compound at 24° C. for 3 hrs. Purified SOS1 (aa 564-1049) protein, GTPγS (Sigma) and GST-cRaf RBD (aa 1-149) were then added to each well and incubated at 24° C. for additional 3 hrs. […] Following the incubation, Mab Anti-6HIS-Tb cryptate (Cisbio) and Mab Anti GST-XL665 (Cisbio) were added and further incubated at 24° C. for 3 hrs. The binding interaction between active GTPγS KRAS G12C and GST-cRaf RBD brings the Tb and XL665 into close proximity enabling an increased FRET signal (Ex337 nm, Em665 nm/620 nm). The inhibition percentage of nucleotide exchange reaction in presence of increasing concentrations of compounds was calculated based on the ratio of fluorescence at 665 nm to that at 620 nm detected on a BMG PHERAstar FSX instrument. The IC50 value of each compound was calculated from fitting the data to the four-parameter logistic model by Dotmatics.

T1 sequence (P01116 1-169 isoform P01116-2 G12C/C51S/C80L/C118S): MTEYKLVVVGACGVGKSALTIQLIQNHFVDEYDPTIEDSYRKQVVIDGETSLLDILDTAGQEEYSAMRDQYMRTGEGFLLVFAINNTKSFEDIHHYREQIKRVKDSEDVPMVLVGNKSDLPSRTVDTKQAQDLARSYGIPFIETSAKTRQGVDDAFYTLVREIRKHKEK

SMILES | IC50
C=CC(=O)N1CCN(c2nc(OC[C@@H]3CCCN3C)nc3c2CN(C(=O)c2cc(N)cc4ccccc24)C3)C[C@@H]1CC#N [Example 50] | 6.16 nM
C=CC(=O)N1CCN(c2nc(OC[C@@H]3CCCN3C)nc3c2CN(C(=O)c2cccc4cccc(Br)c24)C3)C[C@@H]1CC#N [Example 52] | 8.51 nM
C=CC(=O)N1CCN(c2nc(OC[C@@H]3CCCN3C)nc3c2CN(Cc2cccc(C)c2Cl)C3)C[C@@H]1CC#N [Example 53] | 14.9 nM
C=CC(=O)N1CCN(c2nc(OC[C@@H]3CCCN3C)nc3c2CN(C(=O)c2cc(O)cc4ccccc24)C3)C[C@@H]1CC#N [Example 29, 2-((S)-1-acryloyl-4-(6-(3-hydroxy-1-naphthoyl)-2-(((S)-1-methylpyrrolidin-2-yl)methoxy)-6,7-dihydro-5H-pyrrolo[3,4-d]pyrimidin-4-yl)piperazin-2-yl)acetonitrile] | 2.42 nM
C=CC(=O)N1CCN(c2nc(N3CC(N(C)C)C3)nc3c2CN(C2Cc4cccc5cccc2c45)C3)CC1CC#N (single isomer, unassigned) [Example 16 (P2)] | 256 nM
C=CC(=O)N1CCN(c2nc(N3CC(N(C)C)C3)nc3c2CN(Cc2cccc4ccccc24)C3)C[C@@H]1CC#N [Example 19, (S)-2-(1-acryloyl-4-(2-(3-(dimethylamino)azetidin-1-yl)-6-(naphthalen-1-ylmethyl)-6,7-dihydro-5H-pyrrolo[3,4-d]pyrimidin-4-yl)piperazin-2-yl)acetonitrile] | 976 nM
C=CC(=O)N1CCN(c2nc(OC[C@@H]3CCCN3C)nc3c2CN(Cc2cccc4ccccc24)C3)C[C@@H]1CC#N [Example 6, 2-((S)-1-acryloyl-4-(2-(((S)-1-methylpyrrolidin-2-yl)methoxy)-6-(naphthalen-1-ylmethyl)-6,7-dihydro-5H-pyrrolo[3,4-d]pyrimidin-4-yl)piperazin-2-yl)acetonitrile] | 27.7 nM
C=CC(=O)N1CCN(c2nc(OC3CCN(C)CC3)nc3c2CN(Cc2cccc4ccccc24)C3)C[C@@H]1CC#N [Example 18, (S)-2-(1-acryloyl-4-(2-((1-methylpiperidin-4-yl)oxy)-6-(naphthalen-1-ylmethyl)-6,7-dihydro-5H-pyrrolo[3,4-d]pyrimidin-4-yl)piperazin-2-yl)acetonitrile] | 1560 nM
C=CC(=O)N1CCN(c2nc(OC[C@@H]3CCCN3C)nc3c2CN(C(=O)c2c(O)cccc2F)C3)C[C@@H]1CC#N [Example 36, 2-((S)-1-acryloyl-4-(6-(2-fluoro-6-hydroxybenzoyl)-2-(((S)-1-methylpyrrolidin-2-yl)methoxy)-6,7-dihydro-5H-pyrrolo[3,4-d]pyrimidin-4-yl)piperazin-2-yl)acetonitrile] | 238 nM
C=CC(=O)N1CCN(c2nc(OC[C@@H]3CCCN3C)nc3c2CN(Cc2cc(O)ccc2F)C3)C[C@@H]1CC#N [Example 22, 2-((S)-1-acryloyl-4-(6-(2-fluoro-5-hydroxybenzyl)-2-(((S)-1-methylpyrrolidin-2-yl)methoxy)-6,7-dihydro-5H-pyrrolo[3,4-d]pyrimidin-4-yl)piperazin-2-yl)acetonitrile] | 9.63 nM
C=CC(=O)N1CCN(c2nc(OC[C@@H]3CCCN3C)nc3c2CN(C2CCc4ccccc42)C3)C[C@@H]1CC#N (stereo partly shown) [Example 45] | 12.6 nM
C=CC(=O)N1CCN(c2nc(OC[C@@H]3CCCN3C)nc3c2CN(Cc2ccc(F)c4ccccc24)C3)C[C@@H]1CC#N [Example 10, 2-((S)-1-acryloyl-4-(6-((4-fluoronaphthalen-1-yl)methyl)-2-(((S)-1-methylpyrrolidin-2-yl)methoxy)-6,7-dihydro-5H-pyrrolo[3,4-d]pyrimidin-4-yl)piperazin-2-yl)acetonitrile] | 415 nM
C=CC(=O)N1CCN(c2nc(OC[C@@H]3CCCN3C)nc3c2CN(C(=O)c2cccc4cccc(C)c24)C3)C[C@@H]1CC#N [Example 33, 2-((S)-1-acryloyl-4-(6-(8-methyl-1-naphthoyl)-2-(((S)-1-methylpyrrolidin-2-yl)methoxy)-6,7-dihydro-5H-pyrrolo[3,4-d]pyrimidin-4-yl)piperazin-2-yl)acetonitrile] | 22.4 nM
